Experimental data published in patent US6685960B1, “Solid lipidic nanospheres suitable to a fast internalization into cells” (priority 1998, dated 2004).

Columns and labels:
[1] = tested on: NIH-H460 cells of lung carcinoma; experiment: Inhibition of cell proliferation, NIH-H460 cells counted by Cell Counter; format: cell-based
Protocol: The experimentation has been carried out on NIH-H460 cells of lung carcinoma (D. N. Carney et al., Cancer Res., 45, 2913-2923, 1985) grown in monolayer in the RPMI 1640 nutrient medium (Bio Whittaker, Verviers, Belgium) added with 10% by volume with respect to the total volume of FCS (Fetal Calf Serum), at the temperature of 37° C., in a CO2 atmosphere humidified at 5%.
The cells have been put in 24 wells plates, using as nutrient medium RPMI 1640 added with 10% of FCS, and left to adhere for 24 hours. The insemination medium has been then removed and substituted with the experimental medium consisting of RPMI 1640 with 10% of FCS and increasing concentrations of sodium butyrate, or of cholesteryl butyrate in form of nanospheres prepared as in the above reported example 1. The cells have been kept for 6 days in contact with such experimental medium.
The effect of the sodium butyrate and of cholesteryl butyrate on the cell growth has been estimated counting the cells by a Cell Counter.

[2] = tested on: cells of the mastocarcinoma, MCF7; experiment: Inhibition of cell proliferation, MCF7 cells counted by Cell Counter; format: cell-based; conditions: Homo sapiens, MCF7, 144 h, read-out: inhibition of the cell growth
Protocol: The above described experiment has been repeated on cells of the mastocarcinoma, identified with the MCF7 abbreviation, using as insemination medium DMEM/F12 (Dulbecco's modified Eagle's medium, Sigma Chemical Co., St. Louis, Mo.) with 2% FCS.
Said cells have been placed in 12 well plates, where they have been left to adhere for 24 hours in the above described nutrition medium.
The nutrient medium has been then removed and substituted with the experimental medium consisting of DMEM/F12 with 10% FCS added with increasing concentrations of sodium butyrate, or of cholesteryl butyrate in form of nanospheres prepared according to the above reported example 2. The cells have been kept for 6 days in contact with such experimental medium.
The antiproliferative effect of the cholesteryl butyrate nanospheres on the cell growth has been estimated counting the cells with a Cell Counter.

Row | SMILES | effect on the cell proliferation ([1]; comparison test, additive of the experimental medium RPMI 1640 with 10% FCS) | inhibition at 210 µM ([1]; NIH-H460, 144 h, read-out: inhibition of the cell growth) [%] | inhibition at 200 µM [2] [%]
1 | CC(C)CCC[C@@H](C)[C@H]1CC[C@H]2[C@@H]3CC=C4C[C@@H](O)CC[C@]4(C)[C@H]3CC[C@]12C [cholesterol] | does not affect the cell proliferation in any way | – | –
2 | CCCC(=O)[O-].[Na+] [sodium butyrate] | – | 50 | 40
